According to patent publication US9273043B2, “TRPV1 antagonists including dihydroxy substituent and uses thereof” (Purdue Pharma L.P., priority 2011, dated 2016):
Marks after values point to notes of the source that are not given here.

Test system: MIA-induced osteoarthritis pain
Test: MIA-induced osteoarthritis model, grip force test
Format: in vivo, rat
Settings: rat MIA, grip force
Description: Osteoarthritis Pain: To assess the actions of a Compound of Formula (I) for the treatment or prevention of osteoarthritis pain, the rat monosodium iodo-acetate (MIA, i.e., sodium 2-iodoacetate) induced osteoarthritis model was used. Intra-articular injection of MIA causes joint degeneration characterized by osteolysis and swelling, with displacement of the patella, and reductions in bone mineral content and bone mineral density (Pomonis et al., “Development and pharmacological characterization of a rat model of osteoarthritis pain,” Pain 114: 339-346 (2005)). Under isoflurane anaesthesia, an intra-articular injection of 2 mg of MIA (Sigma-Aldrich) in 50 μl of saline was administered through the infrapatellar ligament of the knee joint of the right hind leg of the male, 6 week old Crl:CD(SD) rats. Control rats received an intra-articular injection of 50 μl of saline into the knee joint of the right hind leg. The left knee joint of all rats was untreated. Two weeks after MIA injection, rats were assessed for osteoarthritis pain related-behaviors immediately prior to and 1, 3, 5, 7, and 24 hours after oral drug-in-vehicle administration (for day 1) by determining their weight-bearing capabilities, via the weight bearing difference (WBD) test, and their gripping capabilities, via the grip force test, each as described below. Thus, in the assessment for osteoarthritis pain relief through gripping capability determinations, the 24 hour time point was the start of the next day when drug-in-vehicle was again orally administered (24 hours after the prior administration) for certain dosages. On days 2, 3, and 4, gripping capability response was determined 3 and 24 hours thereafter.
The grip force (GF) of the hind legs was assessed using a Animal Grip Strength System (San Diego Instruments, San Diego, Calif.). Rats were gently restrained and allowed to grasp the wire mesh strain gauge with their hind legs. The animals were then moved in a rostral-caudal direction until they let go of the gauge. The force (in g) at which the rat let go was recorded. Each animal was tested twice at approximately 3-10 minute intervals at each time point and the average of the two readings was used for the GF in data analysis.
Grip force, normalized to account for the weight of each animal, was expressed as “GF/B”, i.e., the ratio of GF to body weight, where GF is the grip force in grams and B is the body weight of the animal in kg. The “% GFR”, i.e., the percentage reversal of the (normalized) grip force impediment occurring post-MIA injection, was determined for each dosage at each time point using the following formula:
[formula] where (GF/B)Drug is the GF/B determined at each post-oral-administration time-point for each dose of each substance administered to MIA-injected animals, (GF/B)Vehicle is the GF/B determined at each post-oral-administration time-point for the vehicle control administered to MIA-injected animals, and (GF/B)Control Rat is the GF/B determined for control rats (saline-injected animals receiving orally-administered vehicle only). With the exception of the controls (i.e., celecoxib, vehicle) where the student's t-test was used, Dunnett's test was conducted for the % GFR. In either instance, values with p <0.05 were considered to be statistically significant.

CC1CN(c2ncc(C(O)CO)cc2F)CCN1C(=O)Nc1nc2cc(F)ccc2s1.O=C(O)C=CC(=O)O (stereo not drawn)
% GFR [mean] (oral 0.3 mg/kg, 1 h (day 1)): 12.8% | % GFR [mean] (oral 0.3 mg/kg, 3 h (day 1)): 21.1* % | % GFR [mean] (oral 0.3 mg/kg, 3 h (day 1), listed as product prepared with Compound A155(a) and fumaric acid): 21.1% | % GFR [mean] (oral 0.3 mg/kg, 5 h (day 1)): 17.3* % | % GFR [mean] (oral 0.3 mg/kg, 7 h (day 1)): 3.7% | % GFR [mean] (oral 0.3 mg/kg, 24 h after day 1 dose (0 hrs day 2)): 4.0% | % GFR [mean] (oral 1 mg/kg once daily, 3 h (day 2)): 43.1** % | % GFR [mean] (oral 1 mg/kg once daily, 3 h (day 2), listed as product prepared with Compound A155(a) and fumaric acid): 43.1% | % GFR [mean] (oral 1 mg/kg once daily, 3 h (day 3)): 38.0** % | % GFR [mean] (oral 1 mg/kg once daily, 3 h (day 3), listed as product prepared with Compound A155(a) and fumaric acid): 38.0% | % GFR [mean] (oral 1 mg/kg once daily, 3 h (day 4)): 40.1** % | % GFR [mean] (oral 1 mg/kg once daily, 3 h (day 4), listed as product prepared with Compound A155(a) and fumaric acid): 40.1% | % GFR [mean] (oral 1 mg/kg once daily, 24 h after day 2 dose (0 hrs day 3)): 15.4** % | % GFR [mean] (oral 1 mg/kg once daily, 24 h after day 3 dose (0 hrs day 4)): 26.1** % | % GFR [mean] (oral 1 mg/kg once daily, 24 h after day 4 dose (0 hrs day 5)): 26.4** % | % GFR [mean] (oral 1 mg/kg, 1 h (day 1)): 29.7** % | % GFR [mean] (oral 1 mg/kg, 3 h (day 1)): 45.2** % | % GFR [mean] (oral 1 mg/kg, 3 h (day 1), listed as product prepared with Compound A155(a) and fumaric acid): 45.2% | % GFR [mean] (oral 1 mg/kg, 5 h (day 1)): 37.6** % | % GFR [mean] (oral 1 mg/kg, 7 h (day 1)): 16.5* % | % GFR [mean] (oral 1 mg/kg, 24 h after day 1 dose (0 hrs day 2)): 3.1% | % GFR [mean] (oral 3 mg/kg once daily, 3 h (day 2)): 50.5** % | % GFR [mean] (oral 3 mg/kg once daily, 3 h (day 2), listed as product prepared with Compound A155(a) and fumaric acid): 50.5% | % GFR [mean] (oral 3 mg/kg once daily, 3 h (day 3)): 45.0** % | % GFR [mean] (oral 3 mg/kg once daily, 3 h (day 3), listed as product prepared with Compound A155(a) and fumaric acid): 45.0% | % GFR [mean] (oral 3 mg/kg once daily, 3 h (day 4)): 45.6** % | % GFR [mean] (oral 3 mg/kg once daily, 3 h (day 4), listed as product prepared with Compound A155(a) and fumaric acid): 45.6% | % GFR [mean] (oral 3 mg/kg once daily, 24 h after day 2 dose (0 hrs day 3)): 22.0** % | % GFR [mean] (oral 3 mg/kg once daily, 24 h after day 3 dose (0 hrs day 4)): 32.0** % | % GFR [mean] (oral 3 mg/kg once daily, 24 h after day 4 dose (0 hrs day 5)): 28.9** % | % GFR [mean] (oral 3 mg/kg, 1 h (day 1)): 36.5** % | % GFR [mean] (oral 3 mg/kg, 3 h (day 1)): 53.6** % | % GFR [mean] (oral 3 mg/kg, 3 h (day 1), listed as product prepared with Compound A155(a) and fumaric acid): 53.6% | % GFR [mean] (oral 3 mg/kg, 5 h (day 1)): 44.3** % | % GFR [mean] (oral 3 mg/kg, 7 h (day 1)): 19.9** % | % GFR [mean] (oral 3 mg/kg, 24 h after day 1 dose (0 hrs day 2)): −2.2% | % GFR [mean] (oral 10 mg/kg once daily, 3 h (day 2)): 57.5** % | % GFR [mean] (oral 10 mg/kg once daily, 3 h (day 2), listed as product prepared with Compound A155(a) and fumaric acid): 57.5% | % GFR [mean] (oral 10 mg/kg once daily, 3 h (day 3)): 51.6** % | % GFR [mean] (oral 10 mg/kg once daily, 3 h (day 3), listed as product prepared with Compound A155(a) and fumaric acid): 51.6% | % GFR [mean] (oral 10 mg/kg once daily, 3 h (day 4)): 52.2** % | % GFR [mean] (oral 10 mg/kg once daily, 3 h (day 4), listed as product prepared with Compound A155(a) and fumaric acid): 52.2% | % GFR [mean] (oral 10 mg/kg once daily, 24 h after day 2 dose (0 hrs day 3)): 32.7** % | % GFR [mean] (oral 10 mg/kg once daily, 24 h after day 3 dose (0 hrs day 4)): 33.4** % | % GFR [mean] (oral 10 mg/kg once daily, 24 h after day 4 dose (0 hrs day 5)): 32.0** % | % GFR [mean] (oral 10 mg/kg, 1 h (day 1)): 35.9** % | % GFR [mean] (oral 10 mg/kg, 3 h (day 1)): 55.6** % | % GFR [mean] (oral 10 mg/kg, 3 h (day 1), listed as product prepared with Compound A155(a) and fumaric acid): 55.6% | % GFR [mean] (oral 10 mg/kg, 5 h (day 1)): 45.9** % | % GFR [mean] (oral 10 mg/kg, 7 h (day 1)): 22.8** % | % GFR [mean] (oral 10 mg/kg, 24 h after day 1 dose (0 hrs day 2)): −5.7% | % GFR [mean] (oral 20 mg/kg, 1 h (day 1)): 49.0** % | % GFR [mean] (oral 20 mg/kg, 3 h (day 1)): 65.1** % | % GFR [mean] (oral 20 mg/kg, 3 h (day 1), listed as product prepared with Compound A155(a) and fumaric acid): 65.1% | % GFR [mean] (oral 20 mg/kg, 5 h (day 1)): 50.3** % | % GFR [mean] (oral 20 mg/kg, 7 h (day 1)): 29.3** % | % GFR [mean] (oral 20 mg/kg, 24 h after day 1 dose (0 hrs day 2)): −1.3%
